As a reminder, the Ki is the equilibrium dissociation constant of an inhibitor or competing ligand from its target. By melting point is commonly meant the temperature, or range, at which the solid turns liquid.

In PMC8894010, “Synthesis, Carbonic Anhydrase II/IX/XII Inhibition, DFT, and Molecular Docking Studies of Hydrazide-Sulfonamide Hybrids of 4-Methylsalicyl- and Acyl-Substituted Hydrazide” (BioMed Research International, 2022) one finds Ki, melting point and CAXII % inhibition data, which are given here for 18 molecules.

One data set deals with T1, CA IX (Homo sapiens, UniProt Q16790).
T1 construct: His-tag; made in house
Nature of the data set: Carbonic anhydrase inhibition assay (p-nitrophenyl acetate hydrolysis, colorimetric, 348 nm). The class given is biochemical. The note with it: mean of three independent experiments ± SEM; pH 7.6; read-out: CAIX Ki (μM ± SEM). The protocol:
All three isozymes, CA II, CA IX, and CA XII, were produced using the same protocol done for each. Transformation was the first step to be done in which the plasmids and the off-spark plasmids of CA II, CA IX, and CA XII were transformed into competent E. coli bacteria using the heat shock method, cells were grown in agar, then a colony was selected for further growth in LB broth, cells were collected by centrifugation according to the methods described in [25], and the plasmid was extracted according to the kit protocol using SanPrep column plasmid miniprep kit obtained from Sangon Biotech. […] Six hours later, the media were aspirated, and the fresh prepared (+10% FBS and 1% pen/strep) media were added to the cells. On the next day, the cells were inspected for their viability, and new media were used for the selection process which were DMEM, FBS, and hygromycin B using a final concentration of 200 μg/mL. The cells were grown in the selective media, and when they reached 70 to 80% confluency, the offs-park plasmid transfected cells were checked under a fluorescent microscope to insure the production of the protein; then, the cells transfected with the His-tagged plasmid were collected for making the cell lysate following the method described by by centrifugation of the cells at 2000 rpm for 5 minutes, washed with PBS, and again centrifuged; the pellet was then suspended in the cell lysis buffer, incubated in ice for 15 minutes, and centrifuged again at 10000 g at 4°C for 15 minutes, and here, the pellet was discarded and the supernatant was collected for purification using Ni-NTA Sepharose column according to the manufacturer's protocol. And the eluting solution was quantified using the protein quantification technique Biuret assay and Bradford reagent for protein quantification.
Carbonic anhydrase inhibition activity was carried out using an already developed method with slight modification. The principle of the current method is centered on that “CA hydrolyses the p-nitrophenyl acetate to p-nitrophenol” which is determined by spectrophotometrically. Reaction mixture contained 60 μL of 50 mM Tris-sulfate buffer (pH 7.6 containing 0.1 mM ZnCl2) and 10 μL (0.5 mM) test compound in 1% DMSO. […] Preparation of p-nitrophenyl acetate was done by taking 6 mM stock using <5% acetonitrile in buffer and was used fresh. Each well was filled with 20 μL solution to attain […] concentration. The total reaction volume was made to 100 μL.

A further data set concerns the target CA II (Homo sapiens, UniProt P00918). Nature of the data set: Carbonic anhydrase inhibition assay (p-nitrophenyl acetate hydrolysis, colorimetric, 348 nm).
The next data set deals with CA XII (Homo sapiens, UniProt O43570). Described as above. As to conditions: for CAXII % inhibition: given instead of Ki where inhibition <50%, test compound 10 μL (0.5 mM), b52 says 1.0 mM.
CA XII, sequence (O43570 25-354): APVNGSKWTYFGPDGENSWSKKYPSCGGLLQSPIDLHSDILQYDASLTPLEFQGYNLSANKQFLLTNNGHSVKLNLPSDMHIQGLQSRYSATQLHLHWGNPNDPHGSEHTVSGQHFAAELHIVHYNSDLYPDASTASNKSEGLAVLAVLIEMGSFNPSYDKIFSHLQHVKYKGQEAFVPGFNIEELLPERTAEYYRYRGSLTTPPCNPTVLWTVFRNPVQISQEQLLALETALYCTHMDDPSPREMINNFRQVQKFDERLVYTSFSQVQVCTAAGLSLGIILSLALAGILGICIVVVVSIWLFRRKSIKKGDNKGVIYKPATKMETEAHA

Procedure for CA II: (§1) Carbonic anhydrase inhibition activity was carried out using an already developed method [19] with slight modification. The principle of the current method is centered on that “CA hydrolyses the p-nitrophenyl acetate to p-nitrophenol” which is determined by spectrophotometrically. Reaction mixture contained 60 μL of 50 mM Tris-sulfate buffer (pH 7.6 containing 0.1 mM ZnCl2) and 10 μL (0.5 mM) test compound in 1% DMSO. […] Preparation of p-nitrophenyl acetate was done by taking 6 mM stock using <5% acetonitrile in buffer and was used fresh. Each well was filled with 20 μL solution to attain 0.6 mM concentration. The total reaction volume was made to 100 μL.
Procedure for CA XII: as §1

For the molecule `COc1cc(C)ccc1C(=O)NNS(=O)(=O)c1ccc([N+](=O)[O-])cc1` [Compound 19, N′-(2-Methoxy-4-methylbenzoyl)-4-nitrobenzenesulfonohydrazide], the melting point was 220 to 222 °C. The Ki at CA IX is 0.58 ± 0.04 µM. The same molecule returned a Ki on CA II of 680 ± 20 nM. On CA XII, the CAXII % inhibition stood at 44.4%.

With `COc1cc(C)ccc1C(=O)NNS(=O)(=O)c1ccc(Br)cc1` [Compound 20, 4-Bromo-N′-(2-methoxy-4-methylbenzoyl)benzenesulfonohydrazide], the melting point was 168 to 169 °C. The Ki at CA IX came out at 0.56 ± 0.05 µM. At CA II, affinity was put at a Ki of 660 ± 40 nM. The same molecule showed a Ki at CA XII of 990 ± 100 nM.

Take `COc1ccc(S(=O)(=O)NNC(=O)c2ccc(C)cc2OC)cc1` [Compound 21, 4-Methoxy-N′-(2-methoxy-4-methylbenzoyl)benzenesulfono hydrazide]: the melting point is 159 to 162 °C. Also, the Ki on CA IX stood at 0.19 ± 0.02 µM. The molecule further yielded a Ki on CA II of 610 ± 10 nM. Besides, at CA XII, the Ki was determined as 1220 ± 10 nM.

For the molecule `COc1cc(C)ccc1C(=O)NNS(=O)(=O)c1ccc(C)cc1` [Compound 22, N′-(2-Methoxy-4-methylbenzoyl)-4-methylbenzenesulfonohydrazide], the melting point lay within 161 to 163 °C. In addition, the Ki on CA IX was 1.04 ± 0.38 µM. The same molecule yielded a Ki at CA II of 680 ± 10 nM. The same molecule displayed a CAXII % inhibition on CA XII of 42.89%.

The molecule `COc1cc(C)ccc1C(=O)NNS(=O)(=O)c1ccc2ccccc2c1` [Compound 23, N′-(2-Methoxy-4-methylbenzoyl)naphthalene-2-sulfonohydrazide] displayed a melting point of 186 to 187 °C. Also, the inhibition constant (Ki) on CA IX was found to be 0.19 ± 0.03 µM. The Ki at CA II is 940 ± 20 nM. For the same molecule, the affinity at CA XII, expressed as Ki, was 750 ± 70 nM.

With `Cc1ccc(C(=O)NNS(=O)(=O)c2ccc([N+](=O)[O-])cc2)c(O)c1` [Compound 24, N′-(2-Hydroxy-4-methylbenzoyl)-4-nitrobenzenesulfonohydrazide], the melting point was 211 to 213 °C. In addition, the Ki on CA IX was 0.54 ± 0.06 µM. The same molecule returned a Ki on CA II of 340 ± 10 nM. This molecule also registered a Ki on CA XII of 520 ± 40 nM.

As for `Cc1ccc(C(=O)NNS(=O)(=O)c2ccc(Br)cc2)c(O)c1` [Compound 25, 4-Bromo-N′-(2-hydroxy-4-methylbenzoyl)benzenesulfonohydrazide], the Ki at CA IX worked out at 0.33 ± 0.03 µM; on CA II, 910 ± 20 nM; on CA XII it was 350 ± 40 nM.

In turn, `COc1ccc(S(=O)(=O)NNC(=O)c2ccc(C)cc2O)cc1` [Compound 26, N′-(2-Hydroxy-4-methylbenzoyl)-4-methoxybenzenesulfono hydrazide] yielded a melting point of 168 to 169 °C. Besides, the Ki at CA IX is 0.91 ± 0.09 µM. On CA II, this molecule gave a Ki of 960 ± 90 nM. Besides, the Ki at CA XII stood at 580 ± 40 nM.

Turning to `Cc1ccc(S(=O)(=O)NNC(=O)c2ccc(C)cc2O)cc1` [Compound 27, N′-(2-Hydroxy-4-methylbenzoyl)-4-methylbenzenesulfonohydrazide], the melting point lay within 183 to 185 °C. In addition, the Ki at CA IX was found to be 0.51 ± 0.04 µM. Besides, the Ki at CA II is 1110 ± 40 nM. Besides, the Ki at CA XII amounted to 430 ± 80 nM.

For the molecule `Cc1ccc(CC(=O)NNS(=O)(=O)c2ccc([N+](=O)[O-])cc2)cc1` [Compound 28, 4-Nitro-N′-(2-(p-tolyl)acetyl)benzenesulfonohydrazide], the melting point was in the range of 205 to 206 °C. Also, the Ki on CA IX was found to be 0.55 ± 0.01 µM. This molecule returned a Ki on CA II of 460 ± 10 nM. Also, the Ki on CA XII came to 1020 ± 80 nM.

The molecule `Cc1ccc(CC(=O)NNS(=O)(=O)c2ccc(Br)cc2)cc1` [Compound 29, 4-Bromo-N′-(2-(p-tolyl)acetyl)benzenesulfonohydrazide] showed a melting point of 156 to 157 °C. In addition, the Ki at CA IX is 0.33 ± 0.02 µM. Further, the affinity at CA II corresponds to a Ki of 730 ± 20 nM. Besides, the Ki at CA XII came to 550 ± 10 nM.

The molecule `COc1ccc(S(=O)(=O)NNC(=O)Cc2ccc(C)cc2)cc1` [Compound 30, 4-Methoxy-N′-(2-(p-tolyl)acetyl)benzenesulfonohydrazide] displayed a melting point of 133 to 134 °C. Moreover, the Ki on CA IX was found to be 0.33 ± 0.03 µM. This molecule returned an inhibition constant (Ki) at CA II of 740 ± 40 nM. This molecule also yielded an inhibitory constant (Ki) at CA XII of 130 ± 10 nM.

Turning to `Cc1ccc(CC(=O)NNS(=O)(=O)c2ccc(C)cc2)cc1` [Compound 31, 4-Methyl-N′-(2-(p-tolyl)acetyl)benzenesulfonohydrazide], the melting point lay in the range of 143 to 144 °C. For the same molecule, the Ki at CA IX amounted to 0.29 ± 0.02 µM. Moreover, on CA II, the affinity, expressed as Ki, was 670 ± 10 nM. In addition, the affinity at CA XII corresponds to a Ki of 400 ± 90 nM.

Turning to `COc1cccc(CC(=O)NNS(=O)(=O)c2ccc([N+](=O)[O-])cc2)c1` [Compound 32, N′-(2-(3-Methoxyphenyl)acetyl)-4-nitrobenzenesulfonohydrazide], the melting point lay within 158 to 159 °C. For the same molecule, the Ki at CA IX is 0.32 ± 0.01 µM. Moreover, affinity on CA II was put at a Ki of 670 ± 60 nM. On CA XII, the CAXII % inhibition turned out to be 49.25%.

As to `COc1cccc(CC(=O)NNS(=O)(=O)c2ccc(Br)cc2)c1` [Compound 33, 4-Bromo-N′-(2-(3-methoxyphenyl)acetyl)benzenesulfonohydrazide], the melting point was in the range of 153 to 154 °C. In addition, the Ki on CA IX was found to be 0.39 ± 0.03 µM. This molecule also showed a Ki at CA II of 680 ± 50 nM. The Ki at CA XII came out at 170 ± 10 nM.

For the molecule `COc1ccc(S(=O)(=O)NNC(=O)Cc2cccc(OC)c2)cc1` [Compound 34, 4-Methoxy-N′-(2-(3-methoxyphenyl)acetyl)benzenesulfonohydrazide], the melting point was in the range of 146 to 147 °C. The Ki on CA IX was 0.65 ± 0.03 µM. The same molecule came in with a Ki at CA II of 1810 ± 30 nM. For the same molecule, at CA XII, the affinity corresponds to a Ki of 220 ± 60 nM.

`COc1cccc(CC(=O)NNS(=O)(=O)c2ccc(C)cc2)c1` [Compound 35, N′-(2-(3-Methoxyphenyl)acetyl)-4-methylbenzenesulfonohydrazide] showed a melting point of 143 to 144 °C. Besides, the Ki at CA IX came out at 1.18 ± 0.04 µM. Besides, the Ki at CA II stood at 3200 ± 140 nM. In addition, the Ki on CA XII turned out to be 340 ± 10 nM.

Take `COc1cccc(CC(=O)NNS(=O)(=O)c2ccc3ccccc3c2)c1` [Compound 36, N′-(2-(3-Methoxyphenyl)acetyl)naphthalene-2-sulfonohydrazide]: the melting point lay in the range of 139 to 141 °C. The Ki at CA IX worked out at 0.6 ± 0.01 µM. The molecule also returned a Ki at CA II of 920 ± 100 nM. At CA XII, the CAXII % inhibition stood at 48.88%.
